Here are results for 13 compounds from ChEMBL document CHEMBL1944591, “Synthesis and biological evaluation of quinazoline and quinoline bearing 2,2,6,6-tetramethylpiperidine-N-oxyl as potential epidermal growth factor receptor(EGFR) tyrosine kinase inhibitors and EPR bio-probe agents” (Eur J Med Chem, 2012).

Series [1] deals with T1, Epidermal growth factor receptor (Homo sapiens, UniProt P00533). As to the kind of experiment: Inhibition of EGFR after 50 mins by HTRF assay. In general terms: In TR-FRET formats the signal depends on donor and acceptor labels being close together.
T1 sequence (P00533 whole entry): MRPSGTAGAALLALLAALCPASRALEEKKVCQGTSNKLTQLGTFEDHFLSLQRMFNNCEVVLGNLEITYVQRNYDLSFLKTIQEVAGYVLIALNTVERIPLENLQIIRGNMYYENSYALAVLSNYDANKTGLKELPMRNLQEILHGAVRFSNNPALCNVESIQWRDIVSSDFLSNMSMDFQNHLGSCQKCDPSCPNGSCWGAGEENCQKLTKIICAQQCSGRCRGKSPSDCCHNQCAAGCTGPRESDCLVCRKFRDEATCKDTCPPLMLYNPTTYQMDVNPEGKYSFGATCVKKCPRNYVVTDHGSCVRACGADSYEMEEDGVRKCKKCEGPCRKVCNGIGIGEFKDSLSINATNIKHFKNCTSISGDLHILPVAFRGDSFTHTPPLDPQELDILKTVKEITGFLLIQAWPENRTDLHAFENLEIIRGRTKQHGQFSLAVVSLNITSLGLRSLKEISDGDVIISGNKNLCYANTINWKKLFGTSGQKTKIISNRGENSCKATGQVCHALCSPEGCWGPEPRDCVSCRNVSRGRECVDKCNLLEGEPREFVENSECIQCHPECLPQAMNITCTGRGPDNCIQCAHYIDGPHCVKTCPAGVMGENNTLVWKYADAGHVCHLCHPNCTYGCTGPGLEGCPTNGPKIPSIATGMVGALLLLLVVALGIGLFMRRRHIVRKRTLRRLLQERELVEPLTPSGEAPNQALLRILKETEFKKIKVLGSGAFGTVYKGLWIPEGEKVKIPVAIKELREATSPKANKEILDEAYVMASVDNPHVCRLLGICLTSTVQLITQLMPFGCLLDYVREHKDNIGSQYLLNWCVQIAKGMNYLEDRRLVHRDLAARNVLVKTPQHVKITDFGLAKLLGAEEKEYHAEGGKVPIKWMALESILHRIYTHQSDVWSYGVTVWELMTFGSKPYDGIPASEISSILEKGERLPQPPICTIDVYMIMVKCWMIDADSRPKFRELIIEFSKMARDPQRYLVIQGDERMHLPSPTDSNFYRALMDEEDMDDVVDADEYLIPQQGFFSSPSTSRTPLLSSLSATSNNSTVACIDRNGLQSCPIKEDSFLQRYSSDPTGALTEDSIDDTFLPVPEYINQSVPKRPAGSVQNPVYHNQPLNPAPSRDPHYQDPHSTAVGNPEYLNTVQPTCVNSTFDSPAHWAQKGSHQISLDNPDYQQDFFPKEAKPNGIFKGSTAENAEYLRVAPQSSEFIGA
In series [2] the test system is A-431. As to the kind of experiment: Cytotoxicity against human A431 cells after 72 hrs by MTT assay. The class given is functional, cell-based. (Tetrazolium dyes change colour on reduction, which living cells bring about.)
The test system of series [3] is A-431. As to the kind of experiment: Cellular uptake in human A431 cells after 8 hrs by EPR spectroscopy. The class given is ADME, cell-based. The conditions noted are these: a-431, 8 h.
Series [4] addresses T1, Epidermal growth factor receptor. Particulars: at 10 µM; call rule not given here.
The subject of series [5] is A-431. As to the kind of experiment: Cytotoxicity against human A431 cells at 300 uM after 72 hrs by MTT assay. The format is functional. The conditions noted are these: A-431, 72 h.

For orientation: IC50 means the midpoint of a concentration-inhibition curve. Read a high IC50 as weaker potency in that assay. The term inhibition denotes the percentage by which the read-out fell short of the control. A low value points to little suppression. For `CC1(C)CC(C(=O)Nc2ccc3ncnc(Nc4ccc(F)c(Cl)c4)c3c2)CC(C)(C)N1[O]`, the IC50 came to 0.015 µM in series [1] and 24.7 µM in the series on A-431 [2] (Homo sapiens, A-431, 72 h). In addition, in the series on A-431 [3], the Drug uptake entry was “Active”. Also, the inhibition in series [4] was 99.5%.
Take `Nc1ccc2ncnc(Nc3cccc(Cl)c3)c2c1`: in the series with A-431 [2] (a-431), the IC50 is 31.9 µM. For the same compound, in series [4], the inhibition was determined as 98.9%.
In turn, `Nc1ccc2ncnc(Nc3cccc(Br)c3)c2c1` displayed an IC50 in the series with A-431 [2] (Homo sapiens, A-431, 72 h) of 34.9 µM.
In the series with A-431 [2] (Homo sapiens, A-431, 72 h), `CC1(C)CCCC(C)(C)N1[O]` showed an IC50 above 300 µM. In the series with A-431 [5], this compound gave an inhibition at 300 µM below 50%.
`Nc1ccc2ncnc(Nc3ccc(F)c(Cl)c3)c2c1`: half-maximal inhibition in series [1] (IC50) required 0.029 µM. In series [4], the inhibition came out at 99.5%.
Consider `COc1cc2ncc(C(=O)NC3CC(C)(C)N([O])C(C)(C)C3)c(Nc3cccc(Cl)c3)c2cc1OC`, for which the IC50 worked out at 0.623 µM in series [1] and 45.5 µM in the series on A-431 [2] (Homo sapiens, A-431, 72 h). The inhibition in series [4] was 88.3%.
Take `COc1cc2ncc(C(=O)O)c(Nc3ccc(F)c(Cl)c3)c2cc1OC`: the IC50 in series [1] came out at 9.28 µM; in the series on A-431 [2] (Homo sapiens, A-431, 72 h), 88.8 µM. The inhibition in series [4] is 66.5%.
For `CC1(C)CC(C(=O)Nc2ccc3ncnc(Nc4cccc(Br)c4)c3c2)CC(C)(C)N1[O]`, the IC50 in series [1] was found to be 0.031 µM; in the series on A-431 [2] (Homo sapiens, A-431, 72 h), 27.4 µM. Also, the inhibition in series [4] is 99.4%.
For `CC1(C)CC(C(=O)Nc2ccc3ncnc(Nc4cccc(Cl)c4)c3c2)CC(C)(C)N1[O]` the same measures were 0.065 µM, 26.9 µM and 99.4%.
For `COc1cc2ncc(C(=O)NC3CC(C)(C)N([O])C(C)(C)C3)c(Nc3cccc(Br)c3)c2cc1OC` the same measures were 0.342 µM, 43.2 µM and 90.3%.
`COc1cc2ncc(C(=O)O)c(Nc3cccc(Cl)c3)c2cc1OC` returned an IC50 in the series on A-431 [2] (Homo sapiens, A-431, 72 h) of 97.9 µM.
On to `COc1cc2ncc(C(=O)NC3CC(C)(C)N([O])C(C)(C)C3)c(Nc3ccc(F)c(Cl)c3)c2cc1OC`, for which the IC50 in series [1] amounted to 0.422 µM; in the series on A-431 [2] (Homo sapiens, A-431, 72 h), 38.1 µM. In the series with A-431 [3], the Drug uptake result is listed as “Active”. In series [4], the inhibition came out at 92.8%.
`COc1cc2ncc(C(=O)O)c(Nc3cccc(Br)c3)c2cc1OC`: the IC50 in series [1] was 8.72 µM; in the series on A-431 [2] (Homo sapiens, A-431, 72 h), 94 µM. The inhibition in series [4] worked out at 60.1%.
